# Test results as given in US20250154197A1, “LIPOLYTIC PEPTIDES” (FUNDACIÓ HOSPITAL UNIVERSITARI VALL D'HEBRON - INSTITUT DE …, priority 2021, published 2025).
# Where no end group is shown, it is not given here. [ ]: non-standard residue; d: D form. The star is where a group is joined. Palmitoyl = CCCCCCCCCCCCCCCC(=O)*; Propionyl = CCC(=O)*
# Experiments:
# [1] = system: human subcutaneoous mature adipocytes; assay: Lipolytic activity: glycerol release in human adipocytes (Lipolysis Assay kit); type: cell-based; conditions: human subcutaneous mature adipocytes
# 3T3-L1 mouse adipocytes = assay: Lipolytic activity: glycerol release in differentiated 3T3-L1 mouse adipocytes (12 h); type: cell-based; conditions: 3T3-L1 mouse adipocytes, 12 h
# Protocol: JCRB9014-A) from Tebu-Bio (Tebu-bio, Barcelona, Spain). Briefly, mouse adipocytes (3T3-L1 cells) were cultured in 48 well plates as described previously (Saez-Lopez et al., 2020). Adipocytes were differentiated using cell culture reagents purchased from Tebu-Bio and following the manufacturer's instructions. At day of differentiation cells were treated in duplicates with vehicle (DMSO), Caffeine (100 μg/ml), and each of the peptides at the specified doses in Table 6a below. At the end of the experiment (12 h), supernatants were collected and glycerol content was measured using a Glycerol Assay Kit (Sigma) following manufacturer's instructions.
Substance,Lipolysis Activity measured as Glycerol (μM) release in media ([1]; 25 μg/ml) [µM],Lipolysis Activity measured as Glycerol (μM) release in media ([1]; 50 μg/ml) [µM],Lipolysis Activity measured as Glycerol (μM) release in media ([1]; 100 μg/ml) [µM],Lipolysis Activity measured as Glycerol (μM) release in media (3T3-L1 mouse adipocytes; 1 μg/ml) [µM],Lipolysis Activity measured as Glycerol (μM) release in media (3T3-L1 mouse adipocytes; 10 μg/ml) [µM],Lipolysis Activity measured as Glycerol (μM) release in media (3T3-L1 mouse adipocytes; 100 μg/ml) [µM],Lipolysis Activity measured as Glycerol (μM) release in media ([1]; 75 μg/ml) [µM]
"NDEGLY [GP3DM-22] (H-[dN][dD][dE]G[dL][dY]-OH; SMILES CC(C)C[C@@H](NC(=O)CNC(=O)[C@@H](CCC(=O)O)NC(=O)[C@@H](CC(=O)O)NC(=O)[C@H](N)CC(N)=O)C(=O)N[C@H](Cc1ccc(O)cc1)C(=O)O) [N-term NH2, C-term COOH]",52.1,59.5,131.9,,,,
"acetyl-hexapeptide-39 (Ac-SIYVAT-NH2) [Hexa-39, reference compound]",,,29.21,,,,
"TDPEGVIF (H-[dT][dD][dP][dE]G[dV][dI][dF]-OH; not fully specified) [GP3D-8 II X, N-term NH2, C-term COOH]",,,,391,434,493,
"NDLEGLY (H-[dN][dD][dL][dE]G[dL][dY]-OH; SMILES CC(C)C[C@@H](NC(=O)CNC(=O)[C@@H](CCC(=O)O)NC(=O)[C@@H](CC(C)C)NC(=O)[C@@H](CC(=O)O)NC(=O)[C@H](N)CC(N)=O)C(=O)N[C@H](Cc1ccc(O)cc1)C(=O)O) [GP3DM-21, N-term NH2, C-term COOH]",116.5,116.7,102.5,,,,
"NDPEGY (H-[dN][dD][dP][dE]G[dY]-OH; SMILES NC(=O)C[C@@H](N)C(=O)N[C@H](CC(=O)O)C(=O)N1CCC[C@@H]1C(=O)N[C@H](CCC(=O)O)C(=O)NCC(=O)N[C@H](Cc1ccc(O)cc1)C(=O)O) [GP3DM-20, N-term NH2, C-term COOH]",128.1,117.7,118.7,,,,
"TWDPEGVIY (H-[dT][dW][dD][dP][dE]G[dV][dI][dY]-OH; not fully specified) [GP3D-9 IX, N-term NH2, C-term COOH]",,,,,,356,
"Ac-NDLEGLY-NH2 (Ac-[dN][dD][dL][dE]G[dL][dY]-NH2; SMILES CC(=O)N[C@H](CC(N)=O)C(=O)N[C@H](CC(=O)O)C(=O)N[C@H](CC(C)C)C(=O)N[C@H](CCC(=O)O)C(=O)NCC(=O)N[C@H](CC(C)C)C(=O)N[C@H](Cc1ccc(O)cc1)C(N)=O) [GP3DM-29, N-term CH3CONH, C-term CONH2]",123.8,72.4,131.9,,,,
"DPEGVLY (H-[dD][dP][dE]G[dV][dL][dY]-OH; SMILES CC(C)C[C@@H](NC(=O)[C@H](NC(=O)CNC(=O)[C@@H](CCC(=O)O)NC(=O)[C@H]1CCCN1C(=O)[C@H](N)CC(=O)O)C(C)C)C(=O)N[C@H](Cc1ccc(O)cc1)C(=O)O) [GP3D-DM3, N-term NH2, C-term COOH]",,,,,,307,
"DPEGVIFY (H-[dD][dP][dE]G[dV][dI][dF][dY]-OH; not fully specified) [GP3D-8 I II, N-term NH2, C-term COOH]",,,,401,474,468,
"Ac-LN-LD-LP-LE-G-LL-LY (Ac-NDPEGLY) [Acetyl-NH-GP3DM-12, N-term CH3CONH, C-term COOH]",,,138.6,,,,
"Ac-NDPEGLY (Ac-[dN][dD][dP][dE]G[dL][dY]-OH; SMILES CC(=O)N[C@H](CC(N)=O)C(=O)N[C@H](CC(=O)O)C(=O)N1CCC[C@@H]1C(=O)N[C@H](CCC(=O)O)C(=O)NCC(=O)N[C@H](CC(C)C)C(=O)N[C@H](Cc1ccc(O)cc1)C(=O)O) [Acetyl-NH-EDL67, N-term CH3CONH, C-term COOH]",66.2,121.0,74.2,,,,
"NDEGLY [GP3DM-24] (H-[dN][dD][dE]G[dL][dY]-OH; SMILES CC(C)C[C@@H](NC(=O)CNC(=O)[C@@H](CCC(=O)O)NC(=O)[C@@H](CC(=O)O)NC(=O)[C@H](N)CC(N)=O)C(=O)N[C@H](Cc1ccc(O)cc1)C(=O)O) [N-term NH2, C-term COOH]",105.2,111.0,148.6,,,,
"NDEGLFY (H-[dN][dD][dE]G[dL][dF][dY]-OH; SMILES CC(C)C[C@@H](NC(=O)CNC(=O)[C@@H](CCC(=O)O)NC(=O)[C@@H](CC(=O)O)NC(=O)[C@H](N)CC(N)=O)C(=O)N[C@H](Cc1ccccc1)C(=O)N[C@H](Cc1ccc(O)cc1)C(=O)O) [GP3DM-19, N-term NH2, C-term COOH]",87.1,64.0,123.3,,,,
"LN-LD-LP-DE-G-LL-LY (NDP[dE]GLY) [GP3DM-16, N-term NH2, C-term COOH]",,41.5,44.1,,,,
"DN-LD-LP-LE-G-LL-LY ([dN]DPEGLY) [GP3DM-13, N-term NH2, C-term COOH]",,49.5,42.1,,,,
"Ac-NDPEGLY-NH2 (Ac-[dN][dD][dP][dE]G[dL][dY]-NH2; SMILES CC(=O)N[C@H](CC(N)=O)C(=O)N[C@H](CC(=O)O)C(=O)N1CCC[C@@H]1C(=O)N[C@H](CCC(=O)O)C(=O)NCC(=O)N[C@H](CC(C)C)C(=O)N[C@H](Cc1ccc(O)cc1)C(N)=O) [GP3DM-27, N-term CH3CONH, C-term CONH2]",72.6,133.3,142.7,,,,
"Ac-NDLEGLY (Ac-[dN][dD][dL][dE]G[dL][dY]-OH; SMILES CC(=O)N[C@H](CC(N)=O)C(=O)N[C@H](CC(=O)O)C(=O)N[C@H](CC(C)C)C(=O)N[C@H](CCC(=O)O)C(=O)NCC(=O)N[C@H](CC(C)C)C(=O)N[C@H](Cc1ccc(O)cc1)C(=O)O) [GP3DM-25, N-term CH3CONH, C-term COOH]",134.2,104.4,121.6,,,,
"WDPEGVF (H-[dW][dD][dP][dE]G[dV][dF]-OH; SMILES CC(C)[C@@H](NC(=O)CNC(=O)[C@@H](CCC(=O)O)NC(=O)[C@H]1CCCN1C(=O)[C@@H](CC(=O)O)NC(=O)[C@H](N)Cc1c[nH]c2ccccc12)C(=O)N[C@H](Cc1ccccc1)C(=O)O) [GP3D-7 I VIII X, N-term NH2, C-term COOH]",14.57,36.68,46.85,,,,42.95
"LN-LD-DP-LE-G-LL-LY (ND[dP]EGLY) [GP3DM-15, N-term NH2, C-term COOH]",,42.0,47.2,,,,
"EtCONH-NDLEGLY (Propionyl-[dN][dD][dL][dE]G[dL][dY]-OH; SMILES CCC(=O)N[C@H](CC(N)=O)C(=O)N[C@H](CC(=O)O)C(=O)N[C@H](CC(C)C)C(=O)N[C@H](CCC(=O)O)C(=O)NCC(=O)N[C@H](CC(C)C)C(=O)N[C@H](Cc1ccc(O)cc1)C(=O)O) [GP3DM-26, N-term CH3CH2CONH, C-term COOH]",98.4,140.0,149.6,,,,
"LN-LD-LP-LE-G-DL-LY (NDPEG[dL]Y) [GP3DM-17, N-term NH2, C-term COOH]",,47.4,53.6,,,,
"LN-DD-LP-LE-G-LL-LY (N[dD]PEGLY) [GP3DM-14, N-term NH2, C-term COOH]",,53.1,52.8,,,,
"CH3(CH2)14CONH-NDLEGLY (Palmitoyl-[dN][dD][dL][dE]G[dL][dY]-OH; SMILES CCCCCCCCCCCCCCCC(=O)N[C@H](CC(N)=O)C(=O)N[C@H](CC(=O)O)C(=O)N[C@H](CC(C)C)C(=O)N[C@H](CCC(=O)O)C(=O)NCC(=O)N[C@H](CC(C)C)C(=O)N[C@H](Cc1ccc(O)cc1)C(=O)O) [GP3DM-28, N-term CH3(CH2)14CONH, C-term COOH]",50.5,122.6,106.0,,,,
"NDEGLY [GP3DM-23] (H-[dN][dD][dE]G[dL][dY]-OH; SMILES CC(C)C[C@@H](NC(=O)CNC(=O)[C@@H](CCC(=O)O)NC(=O)[C@@H](CC(=O)O)NC(=O)[C@H](N)CC(N)=O)C(=O)N[C@H](Cc1ccc(O)cc1)C(=O)O) [N-term NH2, C-term COOH]",139.7,97.7,170.0,,,,
"LN-LD-LP-LE-G-LL-DY (NDPEGL[dY]) [GP3DM-18, N-term NH2, C-term COOH]",,44.4,63.5,,,,
